Assay results taken from patent publication US9447157B2, “Nitration shielding peptides and methods of use thereof” (Augusta University Research Institute, Inc., priority 2013, dated 2016).

What was measured:
[1] = test system: Pulmonary artery smooth muscle cells (PASMC); experiment: PASMC cell growth (cell count); assay type: cell-based, lamb; settings: SIN-1 500 μM 48 h
Procedure: Pulmonary artery smooth muscle cells (PASMC) were grown on a 10 cm dish to 75% confluence, transfected with WT-PKG-1α or Y247F-PKG-1α cDNA using a Qiagen transfection kit, according to manufacturer's instructions, and incubated at 37° C. for 20 h. […] The cells were then trypsinized, seeded onto a 6-well plate at a density of 2.5×10^4 cells per well, and grown for an additional 4 h in serum-free DMEM growth medium containing 1% FBS and antibiotics. The cells were then treated with or without SIN-1 (500 μM) and allowed to grow at 37° C. in the incubator for an additional 48 h. The cellular proliferation was evaluated by counting the cells with a hemacytometer (Cascade Biologicals™, Portland, Oreg.) after the trypsinization of the PASMC monolayers.

[2] = test system: PKG-1α; experiment: PKG activity in transfected HEK-293T cells; assay type: cell-based, human; settings: SIN-1 500 μM 30 min
Procedure: To determine the role of tyrosine 247 and tyrosine 425 in mediating the nitration dependent inhibition of PKG-1α kinase activity, Y247F- and Y425F-PKG-1α mutants were generated and expressed in HEK-293T cells. HEK-293T cells were transiently transfected with expression plasmids containing WT-, Y247F-, or Y425F-PKG-1α for 48 h. Cells were also treated or not with SIN-1 (500 μM, 30 min). Protein extracts were immunoprecipitated using an antibody raised against PKG-1α and the level of nitrated PKG-1α determined by probing the membranes with an antiserum raised against 3-NT. The blots were then stripped and re-probed for PKG-1α to normalize for the efficiency of the immunoprecipitation.
Measurement of PKG Catalytic Activity Total PKG activity was determined using a non-radioactive immunoassay in cell lysates, according to the manufacturer's directions. […]
After incubation for 30 min at 30° C. to allow the phosphorylation of the bound substrate, an HRP conjugated anti-phosphothreonine specific antibody was added to convert a chromogenic substrate to a colorimetric substrate that was subsequently read spectrophotometrically at 450 nm. The change in absorbance reflected the relative activity of PKG in the sample. […] The kinetic constants were determined using nonlinear regression (curve fit) analysis (GraphPad Prism Software Inc).

[3] = test system: Pulmonary artery smooth muscle cells (PASMC); experiment: PASMC cellular metabolism (alamarBlue assay); assay type: cell-based, lamb; settings: SIN-1 500 μM 48 h
Procedure: This was determined via the alamarBlue assay (AbD Serotec, Oxford, UK). The assay is based on the reducing ability of metabolically active cells to convert the active reagent, resazurin, into a fluorescent and colorimetric indicator, resorufin. When added to cell cultures, the oxidized, resazurin enters the cytosol and is converted to the reduced, resorufin in the mitochondria by accepting electrons from NADH, NADPH, FADH2, FMNH2, as well as from the cytochromes. The non-toxic and cell permeable nature of alamarBlue permits the long-term exposure of cells. PASMC were grown on a 10 cm dish to 75% confluence, transfected with WT-PKG-1α or Y247F-PKG-1α cDNA, and incubated at 37° C. for 20 h. The cells were trypsinized and seeded onto a 24-well plate at a density of 20,000 cells per well and grown for an additional 4 h in serum and phenol free DMEM growth medium containing 1% FBS and antibiotics. The cells were then treated with or without SIN-1 (500 μM, 48 h) in the presence of 10% well volume of alamarBlue dye. The color change of the dye was determined at an excitation wavelength of 560 nm and an emission wavelength of 590 nm in a Fluoroskan Ascent plate reader. […] Cellular metabolism was expressed as follows: […]

3-morpholinosydnonimine N-ethylcarbamide [SIN-1]
Proliferation, WT-PKG-1α transfected PASMC [1]: stimulated | cGMP dependent PKG activity, WT- and Y425F-PKG-1α cells ([2]; HEK-293T expressing WT- and Y425F-PKG-1α): attenuated | cGMP-independent PKG activity ([2]; transfected HEK-293T): did not alter | Metabolism, WT-PKG-1α transfected PASMC [3]: stimulated
